Measurements taken from ChEMBL document CHEMBL1201862, “PubChem BioAssay data set” (2004).
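Growth conditions: 96-well plates. Treatment: test compound, 48 hours, 5 concentrations. Analysis: linear interpolation between bracketing concentrations; unreached endpoints set to highest concentration. Here, GI50 denotes the concentration required for 50% inhibition of growth.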 Activity calls are given as the source filed them. Cut-off read from the data, not from the text of the source: active = GI50 up to about 1.1 µM and inactive = higher.

What was measured:
Experiment in all cases: NCI-60 cell line screen, 48 h
[1] = system: BT-549
[2] = system: CAKI-1
[3] = system: HOP-92
[4] = system: MDA-MB-231
[5] = system: RPMI-8226
[6] = system: MOLT-4
[7] = system: OVCAR-5
[8] = system: HT-29
[9] = system: UACC-257
[10] = system: RXF 393
[11] = system: 786-0
[12] = system: UACC-62
[13] = system: MDA-MB-435
[14] = system: M14
[15] = system: SW-620
[16] = system: SK-MEL-5
[17] = system: OVCAR-4
[18] = system: SK-OV-3
[19] = system: COLO 205
[20] = system: SNB-19
[21] = system: ACHN
[22] = system: SN12C
[23] = system: NCI-H23
[24] = system: HCT-116
[25] = system: EKVX
[26] = system: PC-3
[27] = system: HL-60
[28] = system: U-251
[29] = system: IGROV-1
[30] = system: A498
[31] = system: Malme-3M
[32] = system: KM12
[33] = system: NCI-H226
[34] = system: MDA-N
[35] = system: SF-295
[36] = system: HCC 2998
[37] = system: MCF7
[38] = system: SK-MEL-2
[39] = system: HOP-62
[40] = system: SR
[41] = system: DU-145
[42] = system: Hs-578T
[43] = system: HCT-15
[44] = system: OVCAR-3
[45] = system: NCI/ADR-RES
[46] = system: UO-31
[47] = system: SF-539
[48] = system: CCRF-CEM
[49] = system: TK-10
[50] = system: OVCAR-8
[51] = system: NCI-H460
[52] = system: NCI-H522
[53] = system: LOX IMVI
[54] = system: K562
[55] = system: SNB-75
[56] = system: T47D
[57] = system: SF-268
[58] = system: SK-MEL-28
[59] = system: A549

With `O=C1C(Cl)=C(Sc2nnc3c4ccccc4c4ccccc4c3n2)C(=O)c2ccccc21` the GI50 [1] was 17.8 µM (inactive), the GI50 [2] was 17 µM (inactive) and the GI50 [3] was 16.9 µM (inactive). For the same compound, the GI50 [4] was 3.51 µM (inactive), the GI50 [5] was 13.7 µM (inactive) and the GI50 [6] was 13.9 µM (inactive). For the same compound, the GI50 [7] was 23.2 µM (inactive), the GI50 [8] was 25.1 µM (inactive) and the GI50 [9] was 16.3 µM (inactive). For the same compound, the GI50 [10] was 17.1 µM (inactive), the GI50 [11] was 16.4 µM (inactive) and the GI50 [12] was 15.8 µM (inactive). The GI50 [13] was 1.85 µM (inactive), the GI50 [14] was 15.2 µM (inactive) and the GI50 [15] was 23.1 µM (inactive). The GI50 [16] was 7.8 µM (inactive), the GI50 [17] was 14.7 µM (inactive) and the GI50 [18] was 21.6 µM (inactive). The GI50 [19] was 19.3 µM (inactive), the GI50 [20] was 18.7 µM (inactive) and the GI50 [21] was 15.7 µM (inactive). For the same compound, the GI50 [22] was 16.6 µM (inactive), the GI50 [23] was 5 µM (inactive) and the GI50 [24] was 16 µM (inactive). For the same compound, the GI50 [25] was 17.6 µM (inactive), the GI50 [26] was 19 µM (inactive) and the GI50 [27] was 2.74 µM (inactive). For the same compound, the GI50 [28] was 13.3 µM (inactive), the GI50 [29] was 1.08 µM (active) and the GI50 [30] was 20.3 µM (inactive). The GI50 [31] was 3.26 µM (inactive), the GI50 [32] was 14.8 µM (inactive) and the GI50 [33] was 19.3 µM (inactive). The GI50 [34] was 1.92 µM (inactive), the GI50 [35] was 10.8 µM (inactive) and the GI50 [36] was 32.4 µM (inactive). The GI50 [37] was 12.6 µM (inactive), the GI50 [38] was 16.6 µM (inactive) and the GI50 [39] was 16.7 µM (inactive). The GI50 [40] was 7430 nM (inactive), the GI50 [41] was 8.81 µM (inactive) and the GI50 [42] was 34.3 µM (inactive). The GI50 [43] was 19 µM, the GI50 [44] was 14 µM (inactive) and the GI50 [45] was 25.5 µM (inactive). The GI50 [46] was 14.1 µM (inactive), the GI50 [47] was 16.1 µM (inactive) and the GI50 [48] was 3.78 µM (inactive). For the same compound, the GI50 [49] was 22 µM (inactive), the GI50 [50] was 8.47 µM (inactive) and the GI50 [51] was 17.8 µM (inactive). For the same compound, the GI50 [52] was 15.2 µM (inactive), the GI50 [53] was 4.57 µM (inactive) and the GI50 [54] was 21.1 µM (inactive). For the same compound, the GI50 [55] was 2.97 µM (inactive), the GI50 [56] was 6.24 µM (inactive) and the GI50 [57] was 27.5 µM (inactive). The GI50 [58] was 21.8 µM (inactive) and the GI50 [59] was 24.6 µM (inactive).

With `N#Cc1c(-c2ccc([N+](=O)[O-])cc2)cc(-c2ccc(Nc3ccnc4cc(Cl)ccc34)cc2)nc1N` the GI50 [1] was 51.1 µM (inactive), the GI50 [2] was 20.9 µM (inactive) and the GI50 [3] was 29.7 µM (inactive). For the same compound, the GI50 [4] was 16.9 µM (inactive), the GI50 [5] was 5.02 µM (inactive) and the GI50 [6] was 1.81 µM (inactive). The GI50 [7] was 30.8 µM (inactive), the GI50 [8] was 2.71 µM (inactive) and the GI50 [9] was 26.5 µM (inactive). The GI50 [10] was 17.4 µM (inactive), the GI50 [11] was 0.989 µM (active) and the GI50 [12] was 26.7 µM (inactive). The GI50 [13] was 3.35 µM (inactive), the GI50 [14] was 21.1 µM (inactive) and the GI50 [15] was > 21.7 µM (inactive). The GI50 [16] was 25.9 µM (inactive), the GI50 [17] was 2.82 µM (inactive) and the GI50 [18] was 32 µM (inactive). For the same compound, the GI50 [19] was 25.5 µM (inactive), the GI50 [20] was 25.2 µM (inactive) and the GI50 [21] was 30.5 µM (inactive). For the same compound, the GI50 [22] was 4.81 µM (inactive), the GI50 [23] was 25.2 µM (inactive) and the GI50 [24] was 2.3 µM (inactive). The GI50 [25] was 16.9 µM (inactive), the GI50 [26] was 6.49 µM (inactive) and the GI50 [27] was 12.4 µM (inactive). For the same compound, the GI50 [28] was 1.84 µM (inactive), the GI50 [29] was 3.22 µM (inactive) and the GI50 [30] was 26.2 µM (inactive). The GI50 [31] was 21.5 µM (inactive), the GI50 [32] was 2.38 µM (inactive) and the GI50 [33] was > 72.1 µM (inactive). The GI50 [34] was 3.52 µM (inactive), the GI50 [35] was 19 µM (inactive) and the GI50 [36] was 11.4 µM (inactive). The GI50 [37] was 1.61 µM (inactive), the GI50 [38] was 14.7 µM (inactive) and the GI50 [39] was 9.46 µM (inactive). For the same compound, the GI50 [40] was 399 nM (active), the GI50 [41] was 11 µM (inactive) and the GI50 [42] was 11.6 µM (inactive). For the same compound, the GI50 [43] was 2.76 µM, the GI50 [44] was 6.67 µM (inactive) and the GI50 [45] was 4.12 µM (inactive). The GI50 [46] was 26.5 µM (inactive), the GI50 [47] was 31.1 µM (inactive) and the GI50 [48] was 1.11 µM (active). The GI50 [49] was 25.9 µM (inactive), the GI50 [50] was 2.19 µM (inactive) and the GI50 [51] was 7.24 µM (inactive). For the same compound, the GI50 [52] was 3.85 µM (inactive), the GI50 [53] was 1.45 µM (inactive) and the GI50 [54] was 4.56 µM (inactive). For the same compound, the GI50 [55] was 11.4 µM (inactive), the GI50 [56] was 4.81 µM (inactive) and the GI50 [57] was 14.9 µM (inactive). For the same compound, the GI50 [58] was 6.25 µM (inactive) and the GI50 [59] was 3.98 µM (inactive).

`c1ccc2c(c1)N=c1ccccc1=P21c2ccccc2Nc2ccccc21` was tested, and the GI50 [1] was 0.372 µM (active), the GI50 [2] was 2.4 µM (inactive) and the GI50 [3] was 0.332 µM (active). For the same compound, the GI50 [4] was 2.69 µM (inactive), the GI50 [5] was 0.156 µM (active) and the GI50 [6] was 0.3 µM (active). For the same compound, the GI50 [7] was 0.421 µM (active), the GI50 [8] was 0.0724 µM (active) and the GI50 [9] was 0.39 µM (active). The GI50 [10] was 0.438 µM (active), the GI50 [11] was 1.03 µM (active) and the GI50 [12] was 0.611 µM (active). The GI50 [13] was 0.39 µM (active), the GI50 [14] was 0.518 µM (active) and the GI50 [15] was 0.405 µM (active). For the same compound, the GI50 [16] was 0.188 µM (active), the GI50 [17] was 0.601 µM (active) and the GI50 [18] was 0.265 µM (active). For the same compound, the GI50 [19] was 0.129 µM (active), the GI50 [20] was 0.325 µM (active) and the GI50 [21] was 2.4 µM (inactive). For the same compound, the GI50 [22] was 1.5 µM (inactive), the GI50 [23] was 0.304 µM (active) and the GI50 [24] was 0.242 µM (active). For the same compound, the GI50 [25] was 5.04 µM (inactive), the GI50 [26] was 0.242 µM (active) and the GI50 [27] was 0.186 µM (active). The GI50 [28] was 0.366 µM (active), the GI50 [29] was 0.352 µM (active) and the GI50 [30] was 0.581 µM (active). The GI50 [31] was 0.242 µM (active), the GI50 [32] was 0.132 µM (active) and the GI50 [33] was 0.577 µM (active). For the same compound, the GI50 [34] was 0.379 µM (active), the GI50 [35] was 0.942 µM (active) and the GI50 [36] was 0.598 µM (active). For the same compound, the GI50 [37] was 0.457 µM (active), the GI50 [38] was 0.256 µM (active) and the GI50 [39] was 0.908 µM (active). The GI50 [40] was 310 nM (active), the GI50 [41] was 0.388 µM (active) and the GI50 [42] was 0.382 µM (active). The GI50 [43] was 17.2 µM, the GI50 [44] was 0.301 µM (active) and the GI50 [45] was 76 µM (inactive). For the same compound, the GI50 [46] was 7.1 µM (inactive), the GI50 [47] was 0.619 µM (active) and the GI50 [48] was 0.174 µM (active). For the same compound, the GI50 [49] was 0.998 µM (active), the GI50 [50] was 0.521 µM (active) and the GI50 [51] was 0.186 µM (active). The GI50 [52] was 0.216 µM (active), the GI50 [53] was 0.953 µM (active) and the GI50 [54] was 0.202 µM (active). For the same compound, the GI50 [55] was 0.246 µM (active), the GI50 [56] was 0.192 µM (active) and the GI50 [57] was 0.614 µM (active). For the same compound, the GI50 [58] was 0.986 µM (active) and the GI50 [59] was 0.232 µM (active).
